Test results as given in article PMC8698377, “In Vitro Hepatic Assessment of Cineole and Its Derivatives in Common Brushtail Possums (Trichosurus vulpecula) and Rodents” (Biology, 2021).

What was measured:
CYP3A [1] = assay: CYP3A catalytic activity (erythromycin-N-demethylation), possum hepatic microsomes; type: in vitro ADME, possum (Trichosurus vulpecula); settings: for activity at 30 min, 12.5 µM / activity at 30 min, 25 µM: possum (Trichosurus vulpecula), liver microsomes, pH 7.4, probe erythromycin, read-out: CYP3A catalytic activity, % of Control
Procedure: (§1) Microsomal preparation was as previously outlined. Individual livers were placed in beakers containing 1.15% KCl. All the procedures were carried out at 0–4 °C. The liver samples were minced and homogenised in buffer A (0.1 M Tris, 0.1 M potassium chloride, 1 mM EDTA, and 20 μM butylated hydroxytoluene, at pH = 7.4) using the Teflon-glass homogeniser (5–6 vertical passes). The samples were centrifuged for 20 min at 10,000× g. The supernatant was then transferred into another set of centrifuge tubes and spun for 60 min at 100,000× g. The pellet was resuspended in Buffer B (0.1 M potassium pyrophosphate, 1 mM EDTA, and 20 μM butylated hydroxytoluene, at pH = 7.4), homogenised and recentrifuged for 60 min at 100,000× g. Finally, the pellet was homogenised in 1–2 mL of Buffer C (10 mM Tris-HCl, 1 mM EDTA, and 4% glycerol (v/v)) and stored at […] until used. The protein concentration of the microsomes was determined using the Bicinchoninic acid (BCA) method.
(§2) CYP3A catalytic activity was determined using the erythromycin-N-demethylation activity assay as described previously. The reaction mixture (final volume of 1 mL and final protein concentration of 1 mg) contained 500 µL of microsomes in 0.1 M phosphate buffer (pH = 7.4), 400 µL of erythromycin buffer (0.45 mM), and 50 µL of the test compound was pre-warmed at 37 °C for 2 min. The reaction was initiated with 50 µL of 2.5 mM […] and incubated at 37 °C for 30 min (optimised incubation time). The reaction was stopped with the addition of 330 µL of 15% zinc sulphate. Tubes were vortexed and left for 5 min (at room temperature) and then 330 µL of saturated barium hydroxide was added. Tubes were further vortexed and left for 5 min (at room temperature). Tubes were then centrifuged at 1800 g for 10 min. To 830 µL of the supernatant, 330 µL of Nash reagent (30% (w/v) ammonium acetate, 0.4% (v/v) acetyl acetone) was added and further incubated at 60 °C for 30 min. The blank tube contained 330 µL of Nash reagent and 830 µL of Milli-Q-water. The tubes were centrifuged again at 1800× g for 10 min and the absorbance was read at 415 nm. Results presented are the mean ± SEM of 3 independent experiments conducted in duplicate.

CYP3A [2] = assay: CYP3A catalytic activity (erythromycin-N-demethylation), rat hepatic microsomes; type: in vitro ADME; settings: for activity at 30 min, 12.5 µM / activity at 30 min, 25 µM: liver microsomes, pH 7.4, probe erythromycin, read-out: CYP3A catalytic activity, % of Control
Procedure: as §1, §2

UGT [3] = assay: p-nitrophenol glucuronidation, possum hepatic microsomes; type: in vitro ADME, possum (Trichosurus vulpecula)
Procedure: as §1
(§3) The rate of p-nitrophenol glucuronidation was determined as previously reported. In short, the incubation mixture (500 µL in total) contained; 100 µL of 1 mg/mL microsomes, 50 µL of 1 M Tris-HCl (pH = 7.4), 20 µL of 0.25% (v/v) Triton-X 100, 50 µL of 50 mM MgCl2, 130 µL of double distilled water, 50 µL of 5 mM p-nitrophenol, 50 µL of the test compound, and 50 µL of uridine 5′-diphosphoglucuronic acid trisodium salt (UDPGA). The blank tubes had all components except UDPGA and microsomes; instead, 150 µL of 0.1 M phosphate buffer was added to equal the volume as the reaction mixture. The reaction mixture and the blank were incubated at 37 °C for 2 min. Then, 50 µL of 30 mM UDPGA was added to initiate the reaction which proceeded at 37 °C for 30 min (optimised incubation time). The reaction was stopped using 1 mL of 5% trichloroacetic acid (TCA). The tubes were centrifuged at 1800 g for 10 min and then 1 mL of supernatant was added to 250 µL of 2 M sodium hydroxide (NaOH). The absorbance was read at 405 nm. The sample reading was subtracted from the blank absorbance and divided by the extinction coefficient of p-nitrophenol ([…]) and the light path of the spectrophotometer (1 cm). The glucuronidation activities are expressed in µmol/mg/min and are the mean ± SEM of 3 independent experiments conducted in duplicate.

UGT [4] = assay: p-nitrophenol glucuronidation, mouse hepatic microsomes; type: in vitro ADME
Procedure: as §1, §3

UGT [5] = assay: p-nitrophenol glucuronidation, rat hepatic microsomes; type: in vitro ADME
Procedure: as §1, §3

CYP3A [6] = assay: CYP3A catalytic activity (erythromycin-N-demethylation), mouse hepatic microsomes; type: in vitro ADME; settings: for activity at 30 min, 12.5 µM / activity at 30 min, 25 µM: liver microsomes, pH 7.4, probe erythromycin, read-out: CYP3A catalytic activity, % of Control
Procedure: as §1, §2

CYP3A [7] = settings: possum vs human liver microsomes; cited from earlier work

For `C[C@]12CC(=O)C[C@@]1(C)CC(=O)C2` [cis-1,5-dimethylbicyclo[3.3.0]octane-3,7-dione], the CYP3A catalytic activity (CYP3A [1]; 12.5 µM) was 0.41 ± 0.02 nmol/mg/min, the CYP3A catalytic activity (CYP3A [1]; 25 µM) was 0.40 ± 0.03 nmol/mg/min and the activity at 30 min, 12.5 µM (CYP3A [1]; 12.5 µM) was 106 ± 1.42%. The activity at 30 min, 25 µM (CYP3A [1]; 25 µM) was 103 ± 6.11%, the CYP3A catalytic activity (CYP3A [2]; 12.5 µM) was 0.59 ± 0.04 nmol/mg/min and the CYP3A catalytic activity (CYP3A [2]; 25 µM) was 0.60 ± 0.06 nmol/mg/min. It also gave an activity at 30 min, 12.5 µM (CYP3A [2]; 12.5 µM) of 98.3 ± 3.1%, an activity at 30 min, 25 µM (CYP3A [2]; 25 µM) of 99.3 ± 1% and a p-nitrophenol glucuronidation activity (UGT [3]; 12.5 µM) of 3.77 ± 0.28 µmol/mg/min. The “p-nitrophenol glucuronidation, % of Control” value (UGT [3]; 12.5 µM) was 93.15 ± 4.58%, the p-nitrophenol glucuronidation activity (UGT [3]; 25 µM) was 3.78 ± 0.28 µmol/mg/min and the “p-nitrophenol glucuronidation, % of Control” value (UGT [3]; 25 µM) was 93.30 ± 4.13%. The p-nitrophenol glucuronidation activity (UGT [4]; 12.5 µM) was 2.56 ± 0.11 µmol/mg/min, the “p-nitrophenol glucuronidation, % of Control” value (UGT [4]; 12.5 µM) was 102.19 ± 2.82% and the p-nitrophenol glucuronidation activity (UGT [4]; 25 µM) was 2.40 ± 0.15 µmol/mg/min. For the same compound, the “p-nitrophenol glucuronidation, % of Control” value (UGT [4]; 25 µM) was 95.72 ± 2.42%, the p-nitrophenol glucuronidation activity (UGT [5]; 12.5 µM) was 2.58 ± 0.03 µmol/mg/min and the “p-nitrophenol glucuronidation, % of Control” value (UGT [5]; 12.5 µM) was 98.32 ± 3.38%. The p-nitrophenol glucuronidation activity (UGT [5]; 25 µM) was 2.56 ± 0.02 µmol/mg/min, the “p-nitrophenol glucuronidation, % of Control” value (UGT [5]; 25 µM) was 97.79 ± 2.87% and the CYP3A catalytic activity (CYP3A [6]; 12.5 µM) was 0.71 ± 0.03 nmol/mg/min. The CYP3A catalytic activity (CYP3A [6]; 25 µM) was 0.70 ± 0.03 nmol/mg/min, the activity at 30 min, 12.5 µM (CYP3A [6]; 12.5 µM) was 101 ± 2.7% and the activity at 30 min, 25 µM (CYP3A [6]; 25 µM) was 99.64 ± 0.93%.
Work on `COC(=O)[C@H]1CC[C@H](C(=O)OC)CC1` [dimethyl-trans-cyclohexane-1,4-dicarboxylate] yielded a CYP3A catalytic activity (CYP3A [1]; 12.5 µM) of 0.39 ± 0.02 nmol/mg/min, a CYP3A catalytic activity (CYP3A [1]; 25 µM) of 0.42 ± 0.03 nmol/mg/min and an activity at 30 min, 12.5 µM (CYP3A [1]; 12.5 µM) of 102 ± 4.76%. The activity at 30 min, 25 µM (CYP3A [1]; 25 µM) was 111 ± 6%, the CYP3A catalytic activity (CYP3A [2]; 12.5 µM) was 0.64 ± 0.02 nmol/mg/min and the CYP3A catalytic activity (CYP3A [2]; 25 µM) was 0.73 ± 0.06 nmol/mg/min. For the same compound, the activity at 30 min, 12.5 µM (CYP3A [2]; 12.5 µM) was 102 ± 2.42%, the activity at 30 min, 25 µM (CYP3A [2]; 25 µM) was 116 ± 5.35% and the p-nitrophenol glucuronidation activity (UGT [3]; 12.5 µM) was 3.96 ± 0.20 µmol/mg/min. For the same compound, the “p-nitrophenol glucuronidation, % of Control” value (UGT [3]; 12.5 µM) was 102.94 ± 4.63%, the p-nitrophenol glucuronidation activity (UGT [3]; 25 µM) was 3.92 ± 0.19 µmol/mg/min and the “p-nitrophenol glucuronidation, % of Control” value (UGT [3]; 25 µM) was 101.67 ± 0.92%. The p-nitrophenol glucuronidation activity (UGT [4]; 12.5 µM) was 2.43 ± 0.06 µmol/mg/min, the “p-nitrophenol glucuronidation, % of Control” value (UGT [4]; 12.5 µM) was 107.00 ± 0.42% and the p-nitrophenol glucuronidation activity (UGT [4]; 25 µM) was 2.73 ± 0.12 µmol/mg/min. For the same compound, the “p-nitrophenol glucuronidation, % of Control” value (UGT [4]; 25 µM) was 120.23 ± 8.23 %, the p-nitrophenol glucuronidation activity (UGT [5]; 12.5 µM) was 2.71 ± 0.13 µmol/mg/min and the “p-nitrophenol glucuronidation, % of Control” value (UGT [5]; 12.5 µM) was 90.77 ± 2.49%. The p-nitrophenol glucuronidation activity (UGT [5]; 25 µM) was 2.83 ± 0.20 µmol/mg/min, the “p-nitrophenol glucuronidation, % of Control” value (UGT [5]; 25 µM) was 94.83 ± 5.80% and the CYP3A catalytic activity (CYP3A [6]; 12.5 µM) was 0.72 ± 0.02 nmol/mg/min. It also gave a CYP3A catalytic activity (CYP3A [6]; 25 µM) of 0.77 ± 0.05 nmol/mg/min, an activity at 30 min, 12.5 µM (CYP3A [6]; 12.5 µM) of 100 ± 1.31% and an activity at 30 min, 25 µM (CYP3A [6]; 25 µM) of 106 ± 4.88%.
For `Cc1ncc2n1-c1ccc(Cl)cc1C(c1ccccc1F)=NC2` [midazolam], the “Vmax of 1′-hydroxylmiazolam, fold lower in possum than in human liver microsomes” value (CYP3A [7]) is given as 8 fold and the “Vmax of 4-hydroxymidazolam, fold lower in possum than in human liver microsomes” value (CYP3A [7]) is given as 23 fold.
